Measurements from ChEMBL document CHEMBL1132208, “Molecular hashkeys: a novel method for molecular characterization and its application for predicting important pharmaceutical properties of molecules” (J Med Chem, 1999).

The molecules below were run on Homo sapiens (assay: Percent of the drug absorbed after administration to humans was determined). Settings: in vivo.
Format: ADME, organism-based

First: NC[C@H]1CC[C@H](C(=O)O)CC1 [TRANEXAMIC ACID]
Second: O=C(O)P(=O)(O)O [FOSCARNET]
The Absorption of the first is higher: 55% for the first, 17% for the second.

Compared with `Cc1cc(=O)n(-c2ccccc2)n1C` [ANTIPYRINE], `Cc1ccccc1N1C(=O)c2cc(S(N)(=O)=O)c(Cl)cc2NC1C` (stereo not drawn) [METOLAZONE] is lower in Absorption: 97% for the first, 64% for the second.

Compared with `OC[C@H]1O[C@@H](O[C@@H]2[C@@H](CO)O[C@](O)(CO)[C@H]2O)[C@H](O)[C@@H](O)[C@H]1O` [LACTULOSE], `OC[C@H]1O[C@H](OC[C@H]2O[C@H](O[C@]3(CO)O[C@H](CO)[C@@H](O)[C@@H]3O)[C@H](O)[C@@H](O)[C@@H]2O)[C@H](O)[C@@H](O)[C@H]1O` [RAFFINOSE] is lower in Absorption: 0.6% for the first, 0.3% for the second.

Compared with `C=CCOc1ccccc1OCC(O)CNC(C)C` (stereo not drawn) [OXPRENOLOL], `C=CCc1ccccc1OCC(O)CNC(C)C` (stereo not drawn) [ALPRENOLOL] is lower in Absorption: 97% for the first, 96% for the second.

Compared with `O=C(O)c1cc(/N=N/c2ccc(S(=O)(=O)Nc3ccccn3)cc2)ccc1O` [SULFASALAZINE], `O=C(O)c1cc(/N=N/c2ccc(O)c(C(=O)O)c2)ccc1O` [OLSALAZINE] is lower in Absorption: 12% for the first, 2.3% for the second.

First: CC(C)NCC(O)COc1cccc2[nH]ccc12 (stereo not drawn) [PINDOLOL]
Second: CCN1CCCC1CNC(=O)c1cc(S(N)(=O)=O)ccc1OC (stereo not drawn) [SULPIRIDE]
The Absorption of the first is higher: 92% for the first, 36% for the second.

With `OC[C@@H](O)[C@@H](O)[C@H](O)[C@H](O)CO` [MANNITOL] the Absorption was 26%.
